Source: patent US6737058B2, “Methods for inhibiting endothelial cell and fibrinogen mediated inflammation using fibrinogen specific antibodies” (The Scripps Research Institute, priority 1992, dated 2004)

How the values were obtained:
[1] = system: TNF or LPS-stimulated HUVEC; assay: 125I-labelled fibrinogen binding to TNF- or LPS-stimulated HUVEC; parameters: species or system human; settings: TNF 5 ng/ml or LPS 1.0 μg/ml, 4 hours at 37° C.
Experimental: To determine the effect that known stimulators of HUVEC have on the binding characteristics of fibrinogen to HUVEC, dose-response experiments were performed as described in Example 3A2) on untreated HUVEC and TNF or lipopolysaccharide (LPS, Genzyme))-stimulated HUVEC. TNF and LPS were separately admixed at the respective concentrations of 5 nanograms (ng)/ml and 1.0 μg/ml to monolayers of HUVEC and maintained at 37° C. for 4 hours prior to the admixture of the labelled fibrinogen ranging in concentration from 0.01 μM up to 0.36 μM.

HUVEC [2] = assay: Fibrinogen-mediated adhesion of 51Cr-labelled THP-1 cells to HUVEC; type: cell-based, human
Experimental: For these assays, HUVEC were plated in the medium described in Example 2A at a density of approximately 1-5×10^4 cells/well into flat-bottom microtiter wells of a 96 well tissue-culture treated plate. The cells were then washed in serum-free RPMI 1640 and further maintained with ^51-Chromium-labelled (^51Cr) THP-1 cell suspensions previously exposed to different concentrations of unlabelled fibrinogen or left untreated. To label THP-1 cells, serum-free suspensions of the cells at a concentration of 1×10^7 cells/ml were labelled with 0.5 mCi ^51Cr (Na2CrO4 having a specific activity of 487.4 mCi/mg, NEN Du Pont de Nemours) for 2 hours at 37° C. with incorporation of an average of 12 to 20 cpm/THP-1 cell. The labelled cells were then washed twice at room temperature with serum-free RPMI 1640 and resuspended in the same medium at a concentration of 5 ×10^5 cells/ml. The labelled cells were used in the assays within 2 hours from the labelling procedure. For the assays, the cells were pre-stimulated with 1 μM N-FMLP in the presence of 1 mM CaCl2 and […] PPack. The resultant N-FMLP-stimulated THP-1 cell suspensions were then separately admixed with the following: 1) Medium without any admixed fibrinogen as a control; 2) Fibrinogen at 1.2 mg/ml and at 2.5 mg/ml concentrations; and 3) Normal human plasma (NHP) diluted 1:2 and 1:50. Purified fibrinogen was prepared as described in Example 1. Fibrinogen was present in undiluted normal human plasma at the concentration of approximately 1-3 mg/ml. The resultant admixtures were maintained for 20 minutes at 22° C. to allow for the binding of fibrinogen, either purified or present in NHP, to the Mac-1 receptor on the surface of the THP-1 cells.
The resultant fibrinogen-bound THP-1 cells were then admixed to the washed immobilized HUVEC described above to allow for the binding of a non-Mac-1 receptor binding site on fibrinogen to the RGD-independent fibrinogen receptor on the surface of HUVEC, thereby resulting in the binding of THP-1 cells to HUVEC via a fibrinogen bridge. The admixtures were maintained at 37° C. to allow for adhesion. At selected time intervals between 1 to 60 minutes, the HUVEC monolayers were gently washed five times with serum-free RPMI 1640 to remove nonadherent or loosely adherent THP-1 cells to which fibrinogen was initially immobilized. The adherent cells were then solubilized in 10% SDS and the cell lysate was quantitated in a beta scintillation counter. Spontaneous ^51Cr release from THP-1 cells was always less than 2% during the adhesion assay. The number of specifically attached THP-1 cells was determined by dividing the cpm harvested by the cpm/cell.
To determine the effects that temperature has on the ability of fibrinogen to mediate the binding of ^51Cr-labelled THP-1 cells to monolayers of HUVEC, cell adhesion assays as described in Example 3B1) were performed at 22° C. and at 37° C. over the course of one hour. The assays were performed in an identical manner as described above with the exception that 500 μg/ml of fibrinogen was used instead of […]. The maximum binding of THP-1 cells to HUVEC at 22° C. was 7500 cells after 40 minutes. At 60 minutes, the binding decreased to 5000 cells. The data is significant in comparison to the approximately 2000 THP-1 cells attached in the absence of fibrinogen. However, at 37° C., approximately 20,000 THP-1 cells attached to HUVEC after 40 minutes against a background binding of approximately 5000 cells in the absence of fibrinogen. The binding of ^51Cr-labelled THP-1 cells to HUVEC, thus, is maximized at the physiologic temperature of 37° C. with physiologic concentrations of fibrinogen.

HUVEC [3] = assay: Adhesion of terminally-differentiated 51Cr-labeled HL-60 cells to resting HUVEC with plasma adhesive proteins; type: cell-based, human; settings: 150 μ/ml protein, fMLP 10 μM, 30 min at 22° C.
Experimental: The effect of fibrinogen, vitronectin, and fibronectin on the interaction of terminally-differentiated HL-60 and monocytic THP-1 cells with HUVEC was determined as described in Languino, supra. Briefly, serum-free suspensions of HL-60 or THP-1 cells were labeled with ^51Cr as described in Example 81A to a final incorporation of 0.2-4 cpm/cell. After washes in PBS, pH 7.2, aliquots of the HL-60 cells were resuspended in serum-free RPMI 1640 at 1.5×10^6/ml and stimulated with 10 μM of the chemoattractant formyl-methionyl-leucyl-phenylalanine (fMLP, Sigma, St. Louis, Mo.) and equilibrated with 150 μ/ml fibrinogen, vitronectin, or fibronectin in the presence of 1 mM CaCl2 for 20 min at 22° C. Equilibrated HL-60 were added to resting HUVEC monolayers that had been previously incubated with fresh complete culture medium 12 hours prior to the experiment and incubated for an additional 30 min at 22° C., washed,solubilized in 10-20% SDS, and associated radioactivity determined in a scintillation β-counter. The number of attached cells was quantitated by diving the cpm harvested by the cpm/cell. Under these experimental conditions, there was no aggregation of the various leukocyte subpopulations in the presence of the different plasma adhesive proteins, nor disruption of the HUVEC monolayers at any time interval tested, as judged by routine microscopic examination of the adhesion field. Data are the mean ± S.D. of triplicates from a representative experiment.
Experimental conditions were the same as described in Example 9C1 except that the ^51Cr-labeled HL-60 cells were equilibrated with 40 μg/ml vitronectin or control protein transferrin and added to resting HUVEC for increasing time intervals between 10 and 60 minutes at 22° C. before measurement of leukocyte adhesion.
Experimental conditions were the same as described in Example 9C1 except that the ^51Cr-labeled HL-60 cells were equilibrated with several concentrations of vitronectin ranging from 1.84 to 150 μg/ml and prior to incubation to resting HUVEC.

Substance: fibrinogen: fibrinogen isolated from fresh plasma by cold ethanol fractionation, fibronectin-free
- labelled fibrinogen molecules bound per cell in comparison to unstimulated cells [1]: doubled
- THP-1 cells bound to HUVEC, maximum (HUVEC [2]; 500 μg/ml fibrinogen, 22° C., 40 minutes): 7500 cells
- THP-1 cells bound to HUVEC (HUVEC [2]; 500 μg/ml fibrinogen, 22° C., 60 minutes): 5000 cells
- THP-1 cells attached to HUVEC (HUVEC [2]; 500 μg/ml fibrinogen, 37° C., 40 minutes): approximately 20,000 cells
- THP-1 cells attached to HUVEC (parallel control), maximal (HUVEC [2]; 500 μg/ml fibrinogen, 60 minutes, non-saturable): approximately 25,000 cells
- THP-1 cells attached to HUVEC, maximum (HUVEC [2]; 1.2 mg/ml fibrinogen, 37° C., 60 minute time course): 10,000 cells
- THP-1 cells attached to HUVEC (HUVEC [2]; 2.5 mg/ml fibrinogen, 60 minutes, not saturated): approximately 18,000 cells
- adhesion of differentiated HL-60 cells to HUVEC relative to cells not equilibrated with an adhesive protein (HUVEC [3]): two to three-fold higher
